pIC50: −log10 of the molar value. Where a SMILES comes first, the peptide text is derived from it. Bridges are numbered along the chain shown (N, C = ends).
What was measured:
[1] = system: trypsin; assay: Peptide stability assay, trypsin (endopeptidase); type: in vitro ADME; conditions: recommended buffer, RP-HPLC, n = 3
Experimental: (§1) Purified avenatides aV1 and S-alkylated aV1 were incubated under the stated conditions and recommended buffer solution. At each time interval, aliquots of samples were taken and RP-UPLC was performed in triplicate.

[2] = system: Curvularia lunata (CICC 40301); assay: Anti-fungal microbroth dilution assay; type: cell-based; conditions: 1 × 10^5 cells/mL spores in half-strength potato dextrose broth, 25°C, 24 h, crystal violet, absorbance 570 nm, read-out: IC50 against C. lunata
Experimental: (§2) Four phyto-pathogenic fungal strains from the China Center of Industrial Culture Collection (Beijing, China) were used to examine the anti-fungal activity of avenatide aV1: Alternaria alternata (CICC 2465), Curvularia lunata (CICC 40301), Fusarium oxysporum (CICC 2532), and Rhizoctonia solani (CICC 40259). Fungal strains were grown on potato dextrose agar plates at 25°C.
(§3) The half maximal inhibitory concentration levels (IC50) of avenatide aV1 were determined using a microbroth dilution assay ([Loo et al., 2021b]). Fungal spores were harvested from a 4-day old, actively growing fungal plate and suspended in half-strength potato dextrose broth. In the 96-well microplate, 1 × 10^5 cells/mL of spore suspension was mixed with peptides at varying concentrations and incubated at 25°C for 24 h. The cells were then fixed with 100% methanol for 15 min. Staining was done for 45 min with crystal violet dye. MilliQ water was used to remove excess dye. Elution was performed using 1:1 (v/v) ethanol/0.1 N HCl. Absorbance was measured at 570 nm.

[3] = system: Fusarium oxysporum (CICC 2532); assay: Anti-fungal microbroth dilution assay; type: cell-based; conditions: 1 × 10^5 cells/mL spores in half-strength potato dextrose broth, 25°C, 24 h, crystal violet, absorbance 570 nm, read-out: IC50 against F. oxysporum
Experimental: as §2, §3

[4] = system: carboxypeptidase A; assay: Exoproteolytic enzyme stability assay, carboxypeptidase A; type: in vitro ADME; conditions: carboxypeptidase A (isolated exopeptidase); 200 μM peptide, 100 nM carboxypeptidase A, 50 mM Tris-HCl, 100 mM sodium chloride, 37°C, 4 h (time-points 0 and 6 h); quenched with 1 M HCl; RP-UPLC; n = 3; read-out: Peptide retained after carboxypeptidase A treatment
Experimental: as §1
Purified avenatide aV1 (200 μM) were added to 50 mM Tris-HCl, 100 mM sodium chloride with 100 nM carboxypeptidase A or 20 mM tricine and 0.05% bovine serum albumin (pH 8.0) with 20 U/mL aminopeptidase I. The mixture was incubated in a 37°C water bath for 4 h. At each time-point ([…]), 20 μL of the treated sample was aliquoted and quenched with 5 μL 1 M hydrochloric acid. RP-UPLC was performed to determine the amounts of avenatide aV1 present before and after treatment.

CC(C)C[C@@H]1NC(=O)CNC(=O)[C@@H]2CSSC[C@@H]3NC(=O)[C@@H]4CCCN4C(=O)[C@H](CO)NC(=O)[C@H](CO)NC(=O)[C@H](CO)NC(=O)[C@H](CO)NC(=O)[C@@H](NC(=O)[C@H](C)N)CSSC[C@H](NC(=O)[C@H](CSSC[C@@H](C(=O)NCC(=O)N[C@@H](CO)C(=O)NCC(=O)N[C@H]4CSSC[C@@H](C(=O)N[C@H](C(=O)NCC(=O)N[C@@H](C)C(=O)O)[C@@H](C)O)NC(=O)[C@@H]5CCCN5C(=O)CNC(=O)[C@H](CO)NC(=O)[C@H](CCC(N)=O)NC4=O)NC(=O)[C@H](Cc4ccc(O)cc4)NC(=O)[C@H](CC(=O)O)NC(=O)CNC(=O)CNC1=O)NC(=O)[C@H](CCC(N)=O)NC(=O)[C@H](CC(N)=O)NC(=O)CNC(=O)[C@@H]1CCCN1C3=O)C(=O)N[C@@H](CO)C(=O)N[C@@H](CCCCN)C(=O)N[C@@H](Cc1c[nH]c3ccccc13)C(=O)NCC(=O)N[C@@H](Cc1ccc(O)cc1)C(=O)N2 [avenatide aV1] (H-ACSSSSPCPGNQCCSKWGYCGLGGDYCGSGCQSGPCTGA-OH; disulfide 2-14, 8-20, 13-27, 31-36)
Peptide retained after trypsin treatment [1]: > 80%
pIC50 [2]: 4.13
pIC50 [3]: 4.28
remaining at 4 h, 200 μM [4]: > 80%

Source: paper PMC9127739, “Hololectin Interdomain Linker Determines Asparaginyl Endopeptidase-Mediated Maturation of Antifungal Hevein-Like Peptides in Oats” (Frontiers in Plant Science, 2022)
